Data from patent US20230265151A1, “GIP/GLP1 CO-AGONIST COMPOUNDS” (priority 2020, published 2023).
Like-named read-outs stand apart in the source and are kept apart here. *1 amine or outer side, *2 acyl side, *3 side chain or, on linkers, in order; H or OH if unused. Where a SMILES comes first, the peptide text is derived from it. Side-chain parts run from the residue outwards. [ ]: non-standard residue; d: D form. The star is where a group is joined. Decanoyl(10-(4-HOOC-PhO)) = O=C(O)c1ccc(OCCCCCCCCCC(=O)*)cc1; αMePhe(2-F) = C[C@](N)(Cc1ccccc1F)C(=O)O; γGlu = O=C(O)[C@H](CCC(=O)[*:2])N[*:1]; C14 diacid = O=C(O)CCCCCCCCCCCCC(=O)*; αMeY = C[C@](N)(Cc1ccc(O)cc1)C(=O)O; αMeL = CC(C)C[C@](C)(N)C(=O)O; Orn = NCCC[C@H](N)C(=O)O; AEEA = NCCOCCOCC(=O)O; Aib = CC(C)(N)C(=O)O

Experiments:
Format in all cases: cell-based
hGIPR = molecular target: T1, hGIPR (Homo sapiens, UniProt P48546); assay: Functional cAMP formation (HTRF) in HEK-293 clonal cells expressing hGIPR, 0.1% bovine casein, without or with 1.0% human serum albumin; settings: for EC50: cAMP
T1 construct: expressed in transfected cells
T1 sequence (P48546 22-466): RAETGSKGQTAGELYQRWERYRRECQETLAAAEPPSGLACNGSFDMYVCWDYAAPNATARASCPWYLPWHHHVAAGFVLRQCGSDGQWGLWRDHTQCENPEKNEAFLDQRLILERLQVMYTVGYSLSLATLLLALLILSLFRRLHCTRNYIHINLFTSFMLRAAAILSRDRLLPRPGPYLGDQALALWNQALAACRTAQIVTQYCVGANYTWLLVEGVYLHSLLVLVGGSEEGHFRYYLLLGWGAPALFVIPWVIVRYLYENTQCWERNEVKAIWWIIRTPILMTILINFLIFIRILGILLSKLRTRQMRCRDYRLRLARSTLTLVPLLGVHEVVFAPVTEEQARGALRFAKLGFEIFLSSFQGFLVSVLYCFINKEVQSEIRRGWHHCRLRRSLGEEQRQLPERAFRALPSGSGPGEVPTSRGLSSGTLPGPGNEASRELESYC
In short: (§1)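 Readings of the HTRF 665/620 nm ratio, which falls as cAMP rises, were converted to nM cAMP using a standard curve after 30 min peptide exposure at 37° C.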

hGCGR = molecular target: T2, hGCGR (Homo sapiens, UniProt P47871); assay: Functional cAMP formation (HTRF) in HEK-293 clonal cells expressing hGCGR, 0.1% bovine casein, without or with 1.0% human serum albumin
T2 construct: expressed in transfected cells
T2 sequence (P47871 26-477): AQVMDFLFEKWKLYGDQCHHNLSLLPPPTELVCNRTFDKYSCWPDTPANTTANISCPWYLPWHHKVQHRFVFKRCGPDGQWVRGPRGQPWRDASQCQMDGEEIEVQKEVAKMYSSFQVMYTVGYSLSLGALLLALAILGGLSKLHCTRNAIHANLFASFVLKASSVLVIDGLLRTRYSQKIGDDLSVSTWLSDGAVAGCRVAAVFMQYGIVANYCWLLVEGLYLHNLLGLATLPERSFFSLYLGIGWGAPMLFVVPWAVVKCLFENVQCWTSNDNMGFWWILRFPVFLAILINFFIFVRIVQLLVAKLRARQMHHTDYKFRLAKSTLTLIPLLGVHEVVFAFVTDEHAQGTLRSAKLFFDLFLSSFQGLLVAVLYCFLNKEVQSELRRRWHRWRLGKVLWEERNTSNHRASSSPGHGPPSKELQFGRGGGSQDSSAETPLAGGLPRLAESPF
In short: as §1

hGLP-1R = hGLP-1R (Homo sapiens, UniProt P43220); assay: Functional cAMP formation (HTRF) in HEK-293 clonal cells expressing hGLP-1R, 0.1% bovine casein, without or with 1.0% human serum albumin; design: expressed in transfected cells; settings: for Emax: percent of maximal response to GLP-1(7-36)NH2; for EC50: geometric mean
hGLP-1R, sequence (P43220 24-463): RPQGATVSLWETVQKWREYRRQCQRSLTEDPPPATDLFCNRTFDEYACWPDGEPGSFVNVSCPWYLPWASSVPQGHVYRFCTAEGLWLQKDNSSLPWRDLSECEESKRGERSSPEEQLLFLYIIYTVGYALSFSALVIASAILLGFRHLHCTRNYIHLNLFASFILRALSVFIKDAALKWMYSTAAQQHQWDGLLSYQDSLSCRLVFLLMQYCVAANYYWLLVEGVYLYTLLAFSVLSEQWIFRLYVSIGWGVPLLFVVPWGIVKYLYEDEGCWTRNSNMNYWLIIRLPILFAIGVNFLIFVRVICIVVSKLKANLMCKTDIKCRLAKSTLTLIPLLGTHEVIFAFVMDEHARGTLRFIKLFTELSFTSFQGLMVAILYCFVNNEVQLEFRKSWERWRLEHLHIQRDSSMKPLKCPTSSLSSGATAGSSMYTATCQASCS
In short: as §1

[1] = 37° C., 0.1% bovine casein (no human serum albumin), geometric mean, read-out: hGIPR EC50, nM (SEM, n)
[2] = cAMP, 37° C., 0.1% bovine casein (no human serum albumin), geometric mean, read-out: hGCGR EC50, nM (SEM, n)
[3] = cAMP, 37° C., 0.1% bovine casein (no human serum albumin), read-out: hGLP-1R EC50, nM (SEM, n)

## CC[C@H](C)[C@H](NC(=O)[C@H](CCCN)NC(=O)[C@H](CC(=O)O)NC(=O)[C@H](CC(C)C)NC(=O)[C@](C)(CC(C)C)NC(=O)[C@@H](NC(=O)C(C)(C)NC(=O)[C@H](Cc1ccc(O)cc1)NC(=O)[C@H](CC(=O)O)NC(=O)[C@H](CO)NC(=O)[C@@H](NC(=O)[C@](C)(Cc1ccccc1F)NC(=O)[C@@H](NC(=O)CNC(=O)[C@H](CCC(=O)O)NC(=O)C(C)(C)NC(=O)[C@@H](N)Cc1ccc(O)cc1)[C@@H](C)O)[C@@H](C)O)[C@@H](C)CC)C(=O)N[C@@H](C)C(=O)N[C@@H](CCC(N)=O)C(=O)NC(C)(C)C(=O)N[C@@H](CCCCNC(=O)COCCOCCNC(=O)CC[C@H](NC(=O)CCCCCCCCCOc1ccc(C(=O)O)cc1)C(=O)O)C(=O)N[C@@H](Cc1ccccc1)C(=O)N[C@H](C(=O)N[C@H](CCC(=O)O)C(=O)N[C@@](C)(Cc1ccc(O)cc1)C(=O)N[C@@H](CC(C)C)C(=O)N[C@H](C(=O)N[C@@H](CCC(=O)O)C(=O)NCC(=O)NCC(=O)N1CCC[C@H]1C(=O)N[C@@H](CO)C(=O)N[C@@H](CO)C(=O)NCC(=O)N[C@@H](C)C(=O)N1CCC[C@H]1C(=O)N1CCC[C@H]1C(=O)N1CCC[C@H]1C(=O)N[C@@H](CO)C(=O)N[C@@H](CCCCNC(=O)COCCOCCNC(=O)CC[C@H](NC(=O)CCCCCCCCCOc1ccc(C(=O)O)cc1)C(=O)O)C(N)=O)[C@@H](C)CC)[C@@H](C)CC [Example 377] (H-Y[Aib]EGT[αMePhe(2-F)]TSDY[Aib]I[αMeL]LD[Orn]IAQ[Aib]K([AEEA-γGlu-Decanoyl(10-(4-HOOC-PhO))])FI[dE][αMeY]LIEGGPSSGAPPPSK([AEEA-γGlu-Decanoyl(10-(4-HOOC-PhO))])-NH2)
hGIPR; HEK293, read-out: hGIPR Emax, % ± SEM, cAMP, 37° C., 0.1% bovine casein and 1.0% human serum albumin, percent of maximal response to GIP(1-42)NH2
  Emax: 79.4%
hGIPR; HEK293, read-out: hGIPR Emax, % ± SEM, cAMP, 37° C., 0.1% bovine casein, percent of maximal response to GIP(1-42)NH2, arithmetic mean
  Emax: 92.8%
hGIPR; hGIPR EC50, nM (SEM, n), 37° C., 0.1% bovine casein (no human serum albumin), geometric mean
  EC50: 0.0205 nM
hGCGR; hGCGR EC50, nM (SEM, n), cAMP, 37° C., 0.1% bovine casein (no human serum albumin), geometric mean
  EC50: > 9950 nM
hGCGR; hGCGR EC50, nM (SEM, n), cAMP, 37° C., 0.1% bovine casein and 1.0% human serum albumin, geometric mean (SEM, n)
  EC50: > 9950 nM
hGLP-1R; HEK293, read-out: hGLP-1R Emax, % ± SEM, cAMP, 37° C., 0.1% bovine casein and 1.0% human serum albumin
  Emax: 110%
hGLP-1R; HEK293, read-out: hGLP-1R Emax, % ± SEM, cAMP, 37° C., 0.1% bovine casein, arithmetic mean
  Emax: 100%
hGLP-1R; hGLP-1R EC50, nM (SEM, n), cAMP, 37° C., 0.1% bovine casein (no human serum albumin)
  EC50: 0.356 nM

## CC[C@H](C)[C@H](NC(=O)[C@H](CC(C)C)NC(=O)[C@](C)(Cc1ccc(O)cc1)NC(=O)[C@@H](CCC(=O)O)NC(=O)[C@@H](NC(=O)[C@H](Cc1ccccc1)NC(=O)[C@H](CCC(=O)O)NC(=O)C(C)(C)NC(=O)[C@H](CCC(N)=O)NC(=O)[C@H](C)NC(=O)[C@H](CCCCNC(=O)COCCOCCNC(=O)COCCOCCNC(=O)CC[C@H](NC(=O)CCCCCCCOc1ccc(C(=O)O)cc1)C(=O)O)NC(=O)[C@H](CCCN)NC(=O)[C@H](CC(=O)O)NC(=O)[C@H](CC(C)C)NC(=O)[C@](C)(CC(C)C)NC(=O)[C@@H](NC(=O)[C@H](CO)NC(=O)[C@H](Cc1ccncc1)NC(=O)[C@H](CC(=O)O)NC(=O)[C@H](CO)NC(=O)[C@@H](NC(=O)[C@](C)(Cc1ccccc1F)NC(=O)[C@@H](NC(=O)CNC(=O)[C@H](CCC(=O)O)NC(=O)C(C)(C)NC(=O)[C@@H](N)Cc1ccc(O)cc1)[C@@H](C)O)[C@@H](C)O)[C@@H](C)CC)[C@@H](C)CC)C(=O)N[C@@H](CCC(=O)O)C(=O)NCC(=O)NCC(=O)N[C@@H](CCCCNC(=O)COCCOCCNC(=O)COCCOCCNC(=O)CC[C@H](NC(=O)CCCCCCCOc1ccc(C(=O)O)cc1)C(=O)O)C(=O)N[C@@H](CO)C(=O)N[C@@H](CO)C(=O)NCC(=O)N[C@@H](C)C(=O)N1CCC[C@H]1C(=O)N1CCC[C@H]1C(=O)N1CCC[C@H]1C(=O)N[C@@H](CO)C(N)=O [Example 126]
hGIPR; HEK293, read-out: hGIPR Emax, % ± SEM, percent of maximal response to GIP(1-42)NH2, 37° C., 0.1% bovine casein, arithmetic mean
  Emax: 91.8%
hGCGR; hGCGR EC50, nM (SEM, n), cAMP, incubated at 37° C., 0.1% bovine casein (no human serum albumin), geometric mean
  EC50: > 9950 nM
hGLP-1R; hGLP-1R EC50, nM (SEM, n), cAMP, incubated at 37° C., 0.1% bovine casein (no human serum albumin)
  EC50: 1.69 nM

## CC[C@H](C)[C@H](NC(=O)[C@H](CC(C)C)NC(=O)[C@](C)(Cc1ccc(O)cc1)NC(=O)[C@@H](CCC(=O)O)NC(=O)[C@@H](NC(=O)[C@H](Cc1ccccc1)NC(=O)[C@H](CCC(=O)O)NC(=O)C(C)(C)NC(=O)[C@H](CCC(N)=O)NC(=O)[C@H](C)NC(=O)[C@H](CCCCNC(=O)COCCOCCNC(=O)COCCOCCNC(=O)CC[C@H](NC(=O)CCCCCCCCCCCCC(=O)O)C(=O)O)NC(=O)[C@H](CCCN)NC(=O)[C@H](CC(=O)O)NC(=O)[C@H](CC(C)C)NC(=O)[C@](C)(CC(C)C)NC(=O)[C@@H](NC(=O)C(C)(C)NC(=O)[C@H](Cc1ccncc1)NC(=O)[C@H](CC(=O)O)NC(=O)[C@H](CO)NC(=O)[C@@H](NC(=O)[C@](C)(Cc1ccccc1F)NC(=O)[C@@H](NC(=O)CNC(=O)[C@H](CCC(=O)O)NC(=O)C(C)(C)NC(=O)[C@@H](N)Cc1ccc(O)cc1)[C@@H](C)O)[C@@H](C)O)[C@@H](C)CC)[C@@H](C)CC)C(=O)N[C@@H](CCCCNC(=O)COCCOCCNC(=O)COCCOCCNC(=O)CC[C@H](NC(=O)CCCCCCCCCCCCC(=O)O)C(=O)O)C(=O)NCC(=O)NCC(=O)N1CCC[C@H]1C(=O)N[C@@H](CO)C(=O)N[C@@H](CO)C(=O)NCC(=O)N[C@@H](C)C(=O)N1CCC[C@H]1C(=O)N1CCC[C@H]1C(=O)N1CCC[C@H]1C(=O)N[C@@H](CO)C(N)=O [Example 358]
hGIPR; HEK293, cAMP, 37° C., 0.1% bovine casein and 1.0% human serum albumin, percent of maximal response to GIP(1-42)NH2, read-out: hGIPR Emax, % ± SEM
  Emax: 86.2%
hGIPR; [1]
  EC50: 0.0137 nM
hGIPR; 37° C., 0.1% bovine casein and 1.0% human serum albumin, geometric mean (SEM, n), read-out: hGIPR EC50, nM (SEM, n)
  EC50: 2.06 nM
hGCGR; [2]
  EC50: > 10100 nM
hGCGR; cAMP, 37° C., 0.1% bovine casein and 1.0% human serum albumin, geometric mean (SEM, n), read-out: hGCGR EC50, nM (SEM, n)
  EC50: > 9950 nM
hGLP-1R; [3]
  EC50: 0.773 nM

## CC[C@H](C)[C@H](NC(=O)[C@H](CC(C)C)NC(=O)[C@](C)(Cc1ccc(O)cc1)NC(=O)[C@@H](CCC(=O)O)NC(=O)[C@@H](NC(=O)[C@H](Cc1ccccc1)NC(=O)[C@H](CCCCNC(=O)COCCOCCNC(=O)COCCOCCNC(=O)CC[C@H](NC(=O)CCCCCCCCCCCCC(=O)O)C(=O)O)NC(=O)C(C)(C)NC(=O)[C@H](CCC(N)=O)NC(=O)[C@H](C)NC(=O)[C@H](CCCCNC(=O)COCCOCCNC(=O)COCCOCCNC(=O)CC[C@H](NC(=O)CCCCCCCCCCCCC(=O)O)C(=O)O)NC(=O)[C@H](CCCN)NC(=O)[C@H](CC(=O)O)NC(=O)[C@H](CC(C)C)NC(=O)[C@](C)(CC(C)C)NC(=O)[C@@H](NC(=O)[C@H](CO)NC(=O)[C@H](Cc1ccc(OC)cc1)NC(=O)[C@H](CC(=O)O)NC(=O)[C@H](CO)NC(=O)[C@@H](NC(=O)[C@](C)(Cc1ccccc1F)NC(=O)[C@@H](NC(=O)CNC(=O)[C@H](CCC(=O)O)NC(=O)C(C)(C)NC(=O)[C@@H](N)Cc1ccc(O)cc1)[C@@H](C)O)[C@@H](C)O)[C@@H](C)CC)[C@@H](C)CC)C(=O)N[C@@H](CCC(=O)O)C(=O)NCC(=O)NCC(=O)N1CCC[C@H]1C(=O)N[C@@H](CO)C(=O)N[C@@H](CO)C(=O)NCC(=O)N[C@@H](C)C(=O)N1CCC[C@H]1C(=O)N1CCC[C@H]1C(=O)N1CCC[C@H]1C(=O)N[C@@H](CO)C(N)=O [Example 259] (H-Y[Aib]EGT[αMePhe(2-F)]TSDY(Me)SI[αMeL]LD[Orn]K([AEEA-AEEA-γGlu-C14 diacid])AQ[Aib]K([AEEA-AEEA-γGlu-C14 diacid])FI[dE][αMeY]LIEGGPSSGAPPPS-NH2)
hGIPR; HEK293, 0.1% bovine casein and 1.0% human serum albumin, 37° C., percent of maximal response to GIP(1-42)NH2, read-out: hGIPR Emax, % ± SEM
  Emax: 66.4%
hGIPR; HEK293, cAMP, 37° C., 0.1% bovine casein, percent of maximal response to GIP(1-42)NH2, arithmetic mean, read-out: hGIPR Emax, % ± SEM
  Emax: 111%
hGIPR; [1]
  EC50: 0.0198 nM
hGCGR; 0.1% bovine casein and 1.0% human serum albumin, 37° C., geometric mean, read-out: hGCGR EC50, nM (SEM, n)
  EC50: > 9950 nM
hGCGR; [2]
  EC50: > 9950 nM
hGLP-1R; 0.1% bovine casein and 1.0% human serum albumin, 37° C., read-out: hGLP-1R EC50, nM (SEM, n)
  EC50: 28.9 nM
hGLP-1R; [3]
  EC50: 0.362 nM
